Structures can show the parent of a compound that is named as a salt. Where two headings read alike, the source gives them in different places.
Columns and labels:
[1] = target: rBIIa/beta 1 sodium channels expressed in Xenopus oocytes (Rattus norvegicus, UniProt P04775); assay: Electrophysiological Assay 2: two-electrode voltage clamp in Xenopus oocytes; format: cell-based; conditions: apparent Ki for the inactivated state from single point inhibition data, read-out: RBIIA/β1 Ki
Procedure: Electrophysiological Assay 2 was used to measure potencies of compounds of the present invention rBIIa/beta 1 sodium channels expressed in Xenopus oocytes.
Preparation of cRNA encoding cloned rat brain type IIa (rBIIa) and beta 1 (β1): cDNA clones encoding the rat brain beta 1 subunit were cloned in house using standard methods, and mRNA were prepared by standard methods. mRNA encoding rBIIa was provided by Dr. A. Golden (UC Irvine). The mRNAs were diluted and stored at −80° C. in 1 μL aliquots until injection.
Preparation of oocytes: Mature female Xenopus laevis were anaesthetized (20-40 min) using 0.15% 3-aminobenzoic acid ethyl ester (MS-222) following established procedures (Woodward, R. M., et al., Mol. Pharmacol. 41:89-103 (1992)).
Two to six ovarian lobes were surgically removed. Oocytes at developmental stages V-VI were dissected from the ovary, oocytes were still surrounded by enveloping ovarian tissues. Oocytes were defolliculated on the day of surgery by treatment with collagenase (0.5 mg/mL Sigma Type I, or Boehringer Mannheim Type A, for 0.5-1 hr). Treated oocytes were vortexed to dislodge epithelia, washed repeatedly and stored in Barth's medium containing 88 mM NaCl, 1 mM KCl, 0.41 mM CaCl2, 0.33 mM Ca(NO3)2, 0.82 mM MgSO4, 2.4 mM NaHCO3, 5 mM HEPES, pH 7.4 adjusted with 0.1 mg/mL gentamycin sulphate.
Micro-injection of oocytes: Defolliculated oocytes were micro-injected using a Nanoject injection system (Drummond Scientific Co., Broomall, Pa.). Injection pipettes were beveled to minimize clogging. Tip diameter of injection pipettes was 15-35 μm. Oocytes were microinjected with approximately 50 nL 1:10 ratio mixtures of cRNAs for rBIIa and beta 1 respectively.
Electrophysiology: Membrane current responses were recorded in frog Ringer solution containing 115 mM NaCl, 2 mM KCl, 1.8 mM CaCl2, 5 mM HEPES, pH 7.4. Electrical recordings were made using a conventional two-electrode voltage clamp (Dagan TEV-200) over periods ranging between 1-7 days following injection. The recording chamber was a simple gravity fed flow-through chamber (volume […] depending on adjustment of aspirator). Oocytes were placed in the recording chamber, impaled with electrodes and continuously perfused (5-15 mL min^−1) with frog Ringer's solution. The tested compounds were applied by bath perfusion.
Voltage protocols for evoking sodium channel currents: The standard holding potential for whole oocyte clamp was −120 mV. Standard current-voltage relationships were elicited by 40 ms depolarizing steps starting from −60 mV to +50 mV in 10 mV increments. Peak currents were measured as the maximum negative current after depolarizing voltage steps. The voltage from maximum current response was noted and used for the next voltage protocol.
The purpose was to find compounds that are state dependent modifiers of neuronal sodium channels. Preferably, the compounds have a low affinity for the rested/closed state of the channel, but a high affinity for the inactivated state. The following voltage protocol was used to measure a compounds affinity for the inactivated state. Oocytes were held at a holding potential of −120 mV. At this membrane voltage, nearly all of the channels would be in the closed state. Then a 4 second depolarization was made to the voltage where the maximum current was elicited. At the end of this depolarization, nearly all the channels would be in the inactivated state. A 10 ms hyperpolarizing step was then made in order to remove some channels from the incativated state. A final depolarizing test pulse was used to assay the sodium current after this prolonged depolarization (see analysis below). Sodium currents were measured at this test pulse before and after the application of the tested compound. Data was acquired using pClamp 8.0 software and analyzed with clampfit software (Axon instruments). […]

[2] = system: maximal electroshock-induced seizures (MES); assay: Maximum electroshock seizure test (MES), anticonvulsant evaluation; format: in vivo; conditions: Mus musculus, mice
Source text: The compounds of the present invention may be tested for in vivo anticonvulsant activity after i.v., p.o. or i.p. injection using a number of anticonvulsant tests in mice, including the maximum electroshock seizure test (MES). Maximum electroshock seizures were induced in male NSA mice weighing between 15-20 g and male Sprague-Dawley rats weighing between 200-225 g by application of current (50 mA, 60 pulses/sec, 0.8 msec pulse width, 1 sec duration, D.C., mice; 99 mA, 125 pulses/sec, 0.8 msec pulse width, 2 sec duration, D.C., rats) using a Ugo Basile ECT device (Model 7801). Mice were restrained by gripping the loose skin on their dorsal surface and saline-coated corneal electrodes were held lightly against the two corneae. Rats were allowed free movement on the bench top and ear-clip electrodes were used. […] A tonic seizure was defined as a hindlimb extension in excess of 90 degrees from the plane of the body. Results were treated in a quantal manner.
The ability of 4-[4-(4-fluorophenoxy)phenyl]-pyrimidine-2-carboxamide to block maximal electroshock-induced seizures (MES) was determined according to the method above.
4-[4-(4-Fluorophenoxy)phenyl]-pyrimidine-2-carboxamide was administered p.o. to mice 30 minutes before the test procedure.
The following compounds on Table 1 were tested accordingly after a p.o. administration and also after an i.v. injection. The compounds were injected i.v. 15 minutes before the test procedure.

[3] = iv, i.v. injection 15 minutes before the test, read-out: MES i.v. ED50
[4] = po, p.o., 30 minutes before the test, ED50 = dose protecting 50% of animals, read-out: MES p.o. ED50

Row | Compound | Ki [1] | ED50 [2, 3] | ED50 [2, 4]
1 | O=C(c1nccc(-c2ccc(Oc3ccc(F)cc3)cc2)n1)C(Br)Br [1-[4-[4-(4-fluorophenoxy)phenyl]pyrimidine-2-yl]-2,2-dibromoethanone] | 10.6 µM | – | –
2 | CN(C)C(=O)c1cc(N(C)C)nc(-c2ccc(Oc3ccccc3)cc2)n1 [2-(4-phenoxyphenyl)-6-(dimethylamino)pyrimidine-4-carboxylic acid dimethylamide] | – | 2.1 mg/kg | –
3 | CN(C)C=NC(=O)c1ccnc(-c2ccc(Oc3ccc(Cl)cc3F)cc2)n1 [2-[4-(4-chloro-2-fluorophenoxy)phenyl]pyrimidine-4-carboxylic acid dimethylaminomethyleneamide] | – | 1.5 mg/kg | 4.1 mg/kg
4 | COC(=O)c1ccnc(-c2ccc(Oc3ccc(F)cc3)cc2)n1 [2-[4-(4-fluorophenoxy)phenyl]pyrimidine-4-carboxylic acid methyl ester] | 71.5 µM | – | –
5 | CN(C)c1nccc(-c2ccc(Oc3ccc(F)cc3)cc2)n1 [2-dimethylamino-4-[4-(4-fluorophenoxy)phenyl]pyrimidine] | 27.6 µM | – | –
6 | COC(=O)c1nccc(-c2ccc(Oc3ccc(F)cc3F)cc2)n1 [4-[4-(2,4-difluorophenoxy)phenyl]pyrimidine-2-carboxylic acid methyl ester] | 139 µM | – | –
7 | CNC(=O)c1nccc(-c2ccc(Oc3ccc(F)cc3)cc2)n1 [4-[4-(4-Fluorophenoxy)phenyl]-pyrimidine-2-carboxylic acid methylamide] | – | 2.8 mg/kg | 6.1 mg/kg
8 | O=C(NCCCl)c1nccc(-c2ccc(Oc3ccc(F)cc3)cc2)n1 [4-[4-(4-fluorophenoxy)phenyl]pyrimidine-2-carboxylic acid 2-chloroethylamide] | 2.62 µM | – | –
9 | CNC=NC(=O)c1nccc(-c2ccc(Oc3ccc(F)cc3)cc2)n1 [4-[4-(4-fluorophenoxy)phenyl]pyrimidine-2-carboxylic acid methylaminomethyleneamide hydrochloride] | 11.4 µM | – | –
10 | N#Cc1ccc(C(N)=O)nc1-c1ccc(Oc2ccccc2)cc1 [5-cyano-6-(4-phenoxyphenyl)pyridine-2-carboxamide] | 11.9 µM | – | –
11 | NC(=O)c1ccc(O)c(-c2ccc(Oc3ccccc3)cc2)n1 [5-hydroxy-6-(4-phenoxyphenyl)pyridine-2-carboxamide] | 99.3 µM | – | –
12 | CCCCc1ccc(-c2cccc(C(N)=O)n2)cc1 [Compound 8b, 6-(4-n-butylphenyl)pyridine-2-carboxamide] | 10.5 µM | – | –
13 | CC(C)c1ccc(-c2cccc(C(N)=O)n2)cc1 [Compound 8c, 6-(4-i-propylphenyl)pyridine-2-carboxamide] | 41.6 µM | – | –
14 | CSc1ccc(-c2cccc(C(N)=O)n2)cc1 [Compound 8d, 6-(4-thiomethylphenyl)pyridine-2-carboxamide] | 52.7 µM | – | –
15 | CCOc1ccc(-c2cccc(C(N)=O)n2)cc1 [Compound 8e, 6-(4-ethoxyphenyl)pyridine-2-carboxamide] | 58.7 µM | – | –
16 | COc1ccc(-c2cccc(C(N)=O)n2)cc1 [Compound 8f, 6-(4-methoxyphenyl)pyridine-2-carboxamide] | 23.9 µM | – | –

The remaining compounds from weak to strong by Ki [1], led by results:

Row | Ki [1] | Compound | ED50 [2, 3] | ED50 [2, 4]
17 | 9.86 µM | CCOC(=O)c1nccc(-c2ccc(Oc3ccc(F)cc3)cc2)n1 [4-[4-(4-Fluorophenoxy)phenyl]-pyrimidine-2-carboxylic acid ethyl ester] | – | –
18 | 8.7 µM | 4-[4-(4-fluorophenoxy)phenyl]pyrimidine-2-carbamate | – | –
19 | 8.45 µM | Cc1nc(-c2ccc(Oc3ccc(F)cc3)cc2)ccc1C(N)=O [2-methyl-6-[4-(4-fluorophenoxy)phenyl]pyridine-3-carboxamide] | – | –
20 | 6.13 µM | CC(C)(C)c1ccc(-c2cccc(C(N)=O)n2)cc1 [Compound 8a, 6-(4-tert-butylphenyl)pyridine-2-carboxamide] | – | –
21 | 5.91 µM | Fc1ccc(Oc2ccc(-c3ccnc(-c4nc[nH]n4)n3)cc2)cc1 [2-[3-(1,2,4-triazolyl)]-4-[4-(4-fluorophenoxy)phenyl]pyrimidine] | – | –
22 | 4.54 µM | NC(=O)c1ccc(-c2ccc(Oc3ccc(F)cc3)cc2)nc1C(N)=O [6-[4-(4-fluorophenoxy)phenyl]pyridine-2,3-dicarboxamide] | – | –
23 | 3.53 µM | O=CNC(=O)c1nccc(-c2ccc(Oc3ccc(F)cc3)cc2)n1 [4-[4-(4-fluorophenoxy)phenyl]pyrimidine-2-carboxylic acid hydroxymethyleneamide] | 1.5 mg/kg | 5 mg/kg
24 | 3.43 µM | COc1cc(C(N)=O)nc(-c2ccc(Oc3ccc(F)cc3)cc2)c1 [Compound 18, 4-Methoxy-6-[4-(4-fluorophenoxy)phenyl]pyridine-2-carboxamide] | – | –
25 | 2.63 µM | Fc1ccc(Oc2ccc(-c3ccnc(-c4ccno4)n3)cc2)cc1 [2-(5-isoxazolyl)-4-[4-(4-fluorophenoxy)phenyl]pyrimidine] | – | –
26 | 1.13 µM | NC(=O)c1nccc(-c2ccc(Oc3ccc([N+](=O)[O-])cc3)cc2)n1 [4-[4-(4-Nitrophenoxy)phenyl]-pyrimidine-2-carboxamide] | 3.1 mg/kg | 10 mg/kg
27 | 0.33 µM | Cc1cc(N(C)C)cc(-c2ccc(Oc3ccc(F)cc3)cc2)n1 [Compound 14, 2-Methyl-4-dimethylamino-6-[4-(4-fluorophenoxy)phenyl]pyridine] | – | –
28 | 0.32 µM | COc1cc(C(=O)NCCN(C)C)nc(-c2ccc(Oc3ccc(F)cc3)cc2)c1 [Compound 19, 4-Methoxy-6-[4-(4-fluorophenoxy)phenyl]pyridine-2-carboxylic acid dimethylaminoethylamide] | – | –
29 | 0.06 µM | O=C(NCCN1CCCCC1)c1cccc(-c2ccc(Oc3ccc(F)cc3)cc2)n1 [Compound 3, 6-[4-(4-fluorophenoxy)Phenyl]Pyridine Carboxylic Acid N-piperidinylethylamide] | – | –

— patent US6867210B2, “Aryl substituted pyrimidines” (Euro-Celtique S.A., priority 2000, dated 2005)
